From ChEMBL document CHEMBL4680320, “Exploiting the antiproliferative potential of spiropyrazoline oxindoles in a human ovarian cancer cell line” (Bioorg Med Chem, 2021)
Active and inactive are the calls of the source. The rule behind the calls is not given here.

Tests used:
Fibroblast = assay: Cytotoxicity against human fibroblasts cells assessed as cell viability incubated for 48 hrs by MTS assay; assay type: cell-based
A2780 [1] = assay: Antiproliferative activity against human A2780 cells assessed as cell viability incubated for 48 hrs by MTS assay; assay type: functional, cell-based; details: A2780, 48 h
MDA-MB-453 = assay: Antiproliferative activity against human MDA-MB 453 cells assessed as reduction in cell viability incubated for 48 hrs by MTS assay; assay type: functional, cell-based; details: MDA-MB-453, 48 h
A2780 [2] = assay: Induction of apoptosis in human A2780 cells assessed as PARP level at 8.5 uM after 48 hrs by Western blot analysis; assay type: functional, cell-based
A2780 [3] = assay: Induction of mitochondrial membrane potential loss in human A2780 cells at 8.5 uM after 48 hrs by JC-1 staining based flow cytometry; assay type: functional, cell-based
A2780 [4] = assay: Induction of apoptosis in human A2780 cells assessed as apoptotic cells at 8.5 uM measured after 48 hrs by Hoechst staining based fluorescence microscopic analysis relative to control; assay type: functional
A2780 [5] = assay: Induction of apoptosis in human A2780 cells assessed as late apoptotic cells at 8.5 uM measured after 48 hrs by Annexin-V/propidium iodide staining-based flow cytometric analysis (reference value: 6%); assay type: functional
A2780 [6] = assay: Induction of apoptosis in human A2780 cells assessed as increased BAX expression at 8.5 uM after 48 hrs by Western blot analysis; assay type: functional, cell-based
A2780 [7] = assay: Induction of apoptosis in human A2780 cells assessed as decreased […] expression at 8.5 uM after 48 hrs by Western blot analysis; assay type: functional, cell-based
A2780 [8] = assay: Induction of intracellular reactive oxygen species production in human A2780 cells at 8.5 uM measured after 48 hrs by DCFH-DA probe based fluorescence microscopic analysis; assay type: functional, cell-based
Cancer cell lines = assay: Induction of apoptosis in human A2780 cells assessed as DNA damage after 48 hrs by fluorescence microscopic analysis; assay type: functional, cell-based
DNA [9] = assay: Induction of DNA damage of Escherichia coli pUC18 plasmid DNA at 8.5 uM after 24 hrs by agarose gel electrophoresis method; assay type: nucleic-acid assay
Calf thymus DNA [10] = assay: Binding affinity to calf thymus DNA after 24 hrs by UV-vis spectroscopy; details: Bos taurus
A2780 [11] = assay: Induction of necrosis in human A2780 cells at 8.5 uM measured after 48 hrs by Annexin-V/propidium iodide staining-based flow cytometric analysis; assay type: functional, cell-based
A2780 [12] = assay: Induction of autophagy in human A2780 cells assessed as autophagosome accumulation at 8.5 uM after 48 hrs by Hoechst staining based fluorescence microscopic analysis relative to control; assay type: functional, cell-based
DNA [13] = assay: Induction of DNA damage in human A2780 cells assessed as DNA fragmentation at 8.5 uM after 48 hrs by agarose gel electrophoresis; assay type: cell-based
Calf thymus DNA [14] = assay: Binding affinity to calf thymus DNA at 100 uM by circular dichroism spectroscopy; details: Bos taurus
A2780 [15] = assay: Effect on cell cycle distribution in human A2780 cells at 8.5 uM measured after 4 to 24 hrs by flow cytometry; assay type: functional, cell-based; details: time 4-24 hrs

| Structure (SMILES) | IC50 (Fibroblast) [µM] | IC50 (A2780 [1]) [µM] | IC50 (MDA-MB-453) [µM] | also measured |
| --- | --- | --- | --- | --- |
| CC(C)(C)C1=NN(c2ccccc2)[C@]2(C(=O)Nc3cc(Cl)c(F)cc32)[C@H]1c1cccc(Cl)c1 | 14.9 | 11.4 | 14.7 | – |
| CC(C)(C)C1=NN(c2ccc(Cl)cc2)[C@]2(C(=O)Nc3cc(Cl)c(F)cc32)[C@H]1c1cccc(Cl)c1F | 12.9 | 9.9 | 15 | – |
| COc1cccc2c1C(=O)c1c(O)c3c(c(O)c1C2=O)C[C@@](O)(C(=O)CO)C[C@@H]3O[C@H]1C[C@H](N)[C@H](O)[C@H](C)O1 [DOXORUBICIN] | – | 0.6 | – | – |
| CC(C)(C)C1=NN(c2ccccc2)[C@]2(C(=O)Nc3ccc(Br)cc32)[C@H]1c1ccccc1 | 15.7 | 12.1 | 14.6 | – |
| CC(C)(C)C1=NN(c2ccccc2)[C@]2(C(=O)Nc3cc(Cl)c(F)cc32)[C@H]1c1cccc(Cl)c1F | 17.3 | 11.7 | 16.3 | – |
| O=C1Nc2ccc(Br)cc2[C@]12[C@@H](c1ccccc1)C(c1ccccc1)=NN2c1ccccc1 | 55.2 | 8.5 | 11.3 | Activity (A2780 [2]): Active; Activity (A2780 [3]): Active; Activity (A2780 [4]): 31%; Activity (A2780 [5]): 13%; Activity (A2780 [6]): Active; Activity (A2780 [7]): Active; Activity (A2780 [8]): inactive; Activity (Cancer cell lines): Active; Activity (DNA [9]): inactive; Kb (Calf thymus DNA [10]): 7.09 10^6/M; Activity (A2780 [11]): inactive; Activity (A2780 [12]): Active; Activity (DNA [13]): inactive; Activity (Calf thymus DNA [14]): Active; Activity (A2780 [15]): inactive |
